Measurements taken from PMC6724193 (ACS infectious diseases, 2019).

Tests used:
[1] = tested on: M. tuberculosis H37Rv; type: cell-based
[2] = tested on: drug susceptible and drug-resistant M. tuberculosis strains; type: cell-based

## O=C(O)CCCCCC1NC(=O)CS1 (racemic) [(±)-acidomycin, 6-(4-Oxothiazolidin-2-yl)hexanoic acid]
[1]
  agar MIC: 12 µM
  fold increase of MIC of resistant mutant over WT H37Rv: approximately 16 fold
  frequency of resistance (FOR): less than or equal to 1 × 10^−8

## O=C(O)CCCCCC1NC(=O)CS1 (stereo not drawn) [acidomycin]
[2]
  MICs (range over strains): 0.096 to 6.2 µM
[1]
  fold increase in MIC: two- to three-fold
  fold increase of MIC of resistant mutant over WT H37Rv: 16 fold
